Patent US20020137929A1, “1 - (3-heterocyclylphenyl) isothiourea, -isourea, -guanidine and -amidine herbicidal agents” (Intellectual Property Department, BASF Aktiengesellschaft, priority 1998, published 2002)

What was measured:
[1] = system: GALAP (Galium); test: Postemergence herbicidal evaluation; assay type: in vivo, Galium aparine; details: postemergence
How it was run: (§1)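 Compound is applied as a foliar spray to seedlings about two weeks old, formulated in equal parts acetone and water with 0.5% TWEEN 20 and delivered at 40 psi to give about 0.0156–0.500 kg per hectare. Injury is rated visually 0–9 after four to five weeks.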

[2] = system: ABUTH (Velvetleaf); test: Postemergence herbicidal evaluation; assay type: in vivo, Abutilon theophrasti; details: postemergence
How it was run: as §1

[3] = system: GALAP (Galium); test: Preemergence herbicidal evaluation; assay type: in vivo, Galium aparine; details: rated 4-5 weeks after treatment; for Preemergence herbicidal rating GALAP: rating scale 0-9
How it was run: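 Sown cups got a single aqueous acetone spray of test compound (roughly 0.0156–0.500 kg/ha) before seedlings emerged. Evaluation, 4–5 weeks on, used a 0–9 visual scale covering plant stand, vigor, size, malformation, chlorosis and general appearance compared with controls.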

[4] = system: MOOVA (Monochoria); test: Postemergence weed control under flooded paddy conditions; assay type: in vivo, Monochoria vaginalis; details: postemergence weeds, 3-4 weeks after treatment
How it was run: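 Flood-water application, about 0.0313–0.500 kg/ha a.i. in aqueous/acetone 50/50 v/v; water depth 1.5–3 cm throughout. Weeds 3–5 cm, rice 1.5–2.5 leaf. Greenhouse; 0–9 visual rating vs control at 3–4 wk.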

| Compound | herbicidal rating GALAP ([1]; rate 0.0156 kg/ha) | herbicidal rating GALAP ([1]; rate 0.0313 kg/ha) | herbicidal rating GALAP ([1]; rate 0.0625 kg/ha) | herbicidal rating ABUTH ([2]; rate 0.0156 kg/ha) | herbicidal rating ABUTH ([2]; rate 0.0313 kg/ha) | herbicidal rating ABUTH ([2]; rate 0.0625 kg/ha) | Preemergence herbicidal rating GALAP ([3]; rate 0.0156 kg/ha) | Preemergence herbicidal rating GALAP ([3]; rate 0.0313 kg/ha) | Preemergence herbicidal rating GALAP ([3]; rate 0.0625 kg/ha) | Preemergence herbicidal rating GALAP ([3]; rate 0.1250 kg/ha) | Preemergence herbicidal rating GALAP ([3]; rate 0.2500 kg/ha) | also measured |
| --- | --- | --- | --- | --- | --- | --- | --- | --- | --- | --- | --- | --- |
| CC1SC(=Nc2cc(-n3c(=O)cc(C(F)(F)F)n(C)c3=O)c(F)cc2Cl)N(C)C1=O (stereo not shown) [Compound 9] |  |  |  |  |  |  |  |  |  |  |  | GALAP herbicidal rating ([1]; rate 0.0156 kg/ha): 1.5; GALAP herbicidal rating ([1]; rate 0.0313 kg/ha): 2.5; GALAP herbicidal rating ([1]; rate 0.0625 kg/ha): 4.5; GALAP herbicidal rating ([1]; rate 0.1250 kg/ha): 7.5; ABUTH herbicidal rating ([2]; rate 0.0156 kg/ha): 9.0; ABUTH herbicidal rating ([2]; rate 0.0313 kg/ha): 9.0; ABUTH herbicidal rating ([2]; rate 0.0625 kg/ha): 9.0; ABUTH herbicidal rating ([2]; rate 0.1250 kg/ha): 9.0; GALAP preemergence herbicidal rating ([3]; rate 0.0156 kg/ha): 1.0; GALAP preemergence herbicidal rating ([3]; rate 0.0313 kg/ha): 4.5; GALAP preemergence herbicidal rating ([3]; rate 0.0625 kg/ha): 9.0; GALAP preemergence herbicidal rating ([3]; rate 0.1250 kg/ha): 9.0; GALAP preemergence herbicidal rating ([3]; rate 0.2500 kg/ha): 9.0; Herbicidal rating MOOVA ([4]; rate 0.0313 kg/ha): 9.0; Herbicidal rating MOOVA ([4]; rate 0.0625 kg/ha): 9.0; Herbicidal rating MOOVA ([4]; rate 0.1250 kg/ha): 9.0; Herbicidal rating MOOVA ([4]; rate 0.2500 kg/ha): 9.0 |
| Cn1c(C(F)(F)F)cc(=O)n(-c2cc(N=C3SCC(=O)N3Cc3ccc(Cl)cc3)c(Cl)cc2F)c1=O [Compound 145, 3-{4-Chloro-5-{[3-(p-chlorobenzyl)-4-oxo-2-thiazolidinylidene]amino}-2-fluorophenyl}-1-methyl-6-(trifluoromethyl)-2,4(1H,3H)-pyrimidinedione] | 1.0 | 4.0 | 7.0 | 9.0 | 9.0 | 9.0 | 0.0 | 0.0 | 0.0 | 1.0 | 3.0 |  |
| Cc1ccc(CN2C(=O)CSC2=Nc2cc(-n3c(=O)cc(C(F)(F)F)n(C)c3=O)c(F)cc2Cl)cc1C [Compound 147, 3-{4-Chloro-5-{[3-(3,4-dimethylbenzyl)-4-oxo-2-thiazolidinylidene]amino}-2-fluorophenyl}-1-methyl-6-(trifluoromethyl)-2,4(1H,3H)-pyrimidinedione] | 0.0 | 1.0 | 3.0 | 9.0 | 9.0 | 9.0 | 0.0 | 0.0 | 0.0 | 1.0 | 1.0 |  |
| Cn1c(C(F)(F)F)cc(=O)n(-c2cc(N=C3SCC(=O)N3C3CC3)c(Cl)cc2F)c1=O [Compound 152, 3-{4-Chloro-5-[(3-cyclopropyl-4-oxo-2-thiazolidinylidene)amino]-2-fluorophenyl}-1-methyl-6-(trifluoromethyl)-2,4(1H,3H)-pyrimidinedione] | 0.0 | 0.0 | 2.0 | 6.0 | 4.0 | 9.0 |  | 0.0 | 0.0 | 1.0 | 6.0 |  |
| COCCN1C(=O)CSC1=Nc1cc(-n2c(=O)cc(C(F)(F)F)n(C)c2=O)c(F)cc1Cl [Compound 155, 3-{4-Chloro-2-fluoro-5-{[3-(2-methoxyethyl)-4-oxo-2-thiazolidinylidene]amino}phenyl}-1-methyl-6-(trifluoromethyl)-2,4(1H,3H)-pyrimidinedione] | 0.0 | 0.0 | 0.0 | 3.0 | 9.0 | 9.0 |  |  | 4.0 | 4.0 | 4.0 |  |
